A short description of series [1]: In vitro stability in rat plasma. It is filed as in vitro ADME. On the procedure:
(§1) Apelin peptides were spiked into rat plasma, liver homogenate, and kidney homogenate, which were obtained from commercial sources, to a final concentration of 5 μM. The samples were then incubated at 37° C. over a period of 4 hr. […] In a typical experiment, an aliquot of 100 μL of sample was taken from the incubation vial, followed by addition of 300 μL of MeOH containing internal standard. The quenched sample was centrifuged at 5500 g for 15 min after 15 min vortex in room temperature. The supernatant was then analyzed by high resolution LC-MS. […] In vitro plasma, […], and kidney stability results are shown below in Table 14.

Series [2] can be described thus: In vitro stability in rat liver homogenate. It is filed as in vitro ADME. Particulars: tissue homogenate. On the procedure:
as §1

Here are results for 16 molecules from patent publication US11807693B2 (priority 2014, dated 2023).

Starred links: 1 amine or outer side, 2 acyl side, 3 side chain; linkers in the order of their positions; H or OH if unused. Non-standard residues stand in square brackets, D forms with d. Residues, ends and D or L forms follow the SMILES beside them. *: point of attachment. dBip = N[C@H](Cc1ccc(-c2ccccc2)cc1)C(=O)O; Phe(4-Cl) = N[C@@H](Cc1ccc(Cl)cc1)C(=O)O; γGlu = O=C(O)[C@H](CCC(=O)[*:2])N[*:1]; 2Nal = N[C@@H](Cc1ccc2ccccc2c1)C(=O)O; NMeR = CN[C@@H](CCCNC(=N)N)C(=O)O; Tridecanoyl = CCCCCCCCCCCCC(=O)*; hArg = N=C(N)NCCCC[C@H](N)C(=O)O; Cha = N[C@@H](CC1CCCCC1)C(=O)O; αMeL = CC(C)C[C@](C)(N)C(=O)O; β3hV = CC(C)[C@H](N)CC(=O)O; Nle = CCCC[C@H](N)C(=O)O; AEEA = NCCOCCOCC(=O)O; βAla = NCCC(=O)O

Broadly, the fraction remaining is the share of the starting amount still present when the sample was taken. High values mean greater stability, low ones a greater loss. As to `CSCC[C@H](NC(=O)[C@@H](N)CS)C(=O)N1CCC[C@H]1C(=O)N[C@@H](CC(C)C)C(=O)N[C@@H](Cc1cnc[nH]1)C(=O)N[C@@H](CO)C(=O)N[C@@H](CCCNC(=N)N)C(=O)N[C@H](C(=O)N1CCC[C@H]1C(=O)N[C@@H](Cc1ccccc1)C(=O)N1CCC[C@H]1C(=O)O)C(C)C` [compound 13], the amount remaining at 4 h, 5 μM is 7% in series [1] and less than 1% in series [2].
For `CCCC[C@H](NC(=O)[C@@H]1CCCN1C(=O)CNC(=O)[C@H](CCCCN)NC(=O)[C@H](Cc1c[nH]cn1)NC(=O)[C@H](CO)NC(=O)[C@H](CC(C)C)NC(=O)[C@H](CCCNC(=N)N)NC(=O)[C@@H]1CCCN1C(=O)[C@H](CCCNC(=N)N)NC(=O)[C@H](CCC(N)=O)NC(=O)[C@H](CCCNC(=N)N)NC(C)=O)C(=O)N1CCC[C@H]1C(=O)N[C@H](Cc1ccc(-c2ccccc2)cc1)C(=O)O` [compound 62] (Ac-RQRPRLSHKGP[Nle]P[dBip]-OH), in that order: 6.3% and less than 1%.
Take `CCCC[C@H](NC(=O)[C@@H]1CCCN1C(=O)CNC(=O)[C@H](CCCCN)NC(=O)[C@H](Cc1c[nH]cn1)NC(=O)[C@H](CO)NC(=O)[C@H](CC1CCCCC1)NC(=O)[C@H](CCCNC(=N)N)N(C)C(=O)[C@@H]1CCCN1C(=O)[C@H](CCCNC(=N)N)NC(=O)[C@H](CCC(N)=O)NC(=O)[C@H](CCCNC(=N)N)NC(C)=O)C(=O)N1CCC[C@H]1C(=O)N[C@@H](Cc1ccc(Cl)cc1)C(=O)O` [compound 66] (Ac-RQRP[NMeR][Cha]SHKGP[Nle]P[Phe(4-Cl)]-OH): the share remaining at 4 h, 5 μM in series [1] was 2.4%.
On to `CCCCCCCCCCCCC(=O)N[C@@H](CCC(=O)NCCOCCOCC(=O)NCCOCCOCC(=O)N[C@@H](CCC(N)=O)C(=O)N[C@@H](CCCCNC(=N)N)C(=O)N1CCC[C@H]1C(=O)N(C)[C@@H](CCCNC(=N)N)C(=O)N[C@@H](CC(C)C)C(=O)N[C@@H](CO)C(=O)N[C@@H](Cc1c[nH]cn1)C(=O)N[C@@H](CCCCN)C(=O)NCC(=O)N1CCC[C@H]1C(=O)N[C@@H](CCCC)C(=O)N1CCC[C@H]1C(=O)N[C@@H](Cc1ccc(Cl)cc1)C(=O)O)C(=O)O` [compound 353], for which the amount remaining at 4 h, 5 μM in series [1] came to 20%; in series [2], 0%.
For `CCCCCCCCCCCCC(=O)N[C@@H](CCC(=O)NCCOCCOCC(=O)NCCOCCOCC(=O)N[C@@H](CCC(N)=O)C(=O)N[C@@H](CCCNC(=N)N)C(=O)N1CCC[C@H]1C(=O)N[C@@H](CCCCNC(=N)N)C(=O)N[C@@H](CC(C)C)C(=O)N[C@@H](CO)C(=O)N[C@@H](Cc1c[nH]cn1)C(=O)N[C@@H](CCCCN)C(=O)NCC(=O)N1CCC[C@H]1C(=O)N[C@@H](CCCC)C(=O)N1CCC[C@H]1C(=O)N[C@@H](Cc1ccc(Cl)cc1)C(=O)O)C(=O)O` [compound 355], in that order: 64% and 0%.
For `CCCCCCCCCCCCC(=O)N[C@@H](CCC(=O)NCCOCCOCC(=O)NCCOCCOCC(=O)N[C@@H](CCC(N)=O)C(=O)N[C@@H](CCCCNC(=N)N)C(=O)N1CCC[C@H]1C(=O)N[C@@H](CCCCNC(=N)N)C(=O)N[C@@H](CC(C)C)C(=O)N[C@@H](CO)C(=O)N[C@@H](Cc1c[nH]cn1)C(=O)N[C@@H](CCCCN)C(=O)NCC(=O)N1CCC[C@H]1C(=O)N[C@@H](CCCC)C(=O)N1CCC[C@H]1C(=O)N[C@@H](Cc1ccc(Cl)cc1)C(=O)O)C(=O)O` [compound 357], in that order: 56% and 0%.
On the same counts, the results for `CCCCCCCCCCCCC(=O)N[C@@H](CCC(=O)NCCOCCOCC(=O)NCCOCCOCC(=O)N[C@@H](CCC(N)=O)C(=O)N[C@@H](CCCCNC(=N)N)C(=O)N1CCC[C@H]1C(=O)N(C)[C@@H](CCCNC(=N)N)C(=O)N[C@H](CC(=O)N[C@@H](CO)C(=O)N[C@@H](Cc1c[nH]cn1)C(=O)N[C@@H](CCCCN)C(=O)NCC(=O)N1CCC[C@H]1C(=O)N[C@@H](CCCC)C(=O)N1CCC[C@H]1C(=O)N[C@@H](Cc1ccc(Cl)cc1)C(=O)O)C(C)C)C(=O)O` [compound 383] ({Tridecanoyl-γGlu-AEEA-AEEA}-Q[hArg]P[NMeR][β3hV]SHKGP[Nle]P[Phe(4-Cl)]-OH) are 31% and less than 1%.
Consider `CCCCCCCCCCCCC(=O)N[C@@H](CCC(=O)NCCOCCOCC(=O)NCCOCCOCC(=O)N[C@@H](CCC(N)=O)C(=O)N[C@H](CCCNC(=N)N)C(=O)N1CCC[C@H]1C(=O)N(C)[C@@H](CCCCNC(=N)N)C(=O)NC(CC(=O)N[C@@H](CO)C(=O)N[C@@H](Cc1c[nH]cn1)C(=O)N[C@@H](CCCCN)C(=O)NCC(=O)N1CCC[C@H]1C(=O)N[C@@H](CCCC)C(=O)N1CCC[C@H]1C(=O)N[C@@H](Cc1ccc(Cl)cc1)C(=O)O)C(C)C)C(=O)O` (stereo partly shown) [compound 384], for which the figures for the amount remaining at 4 h, 5 μM in series [1] and in series [2] were 25% and less than 1%, respectively.
On the same counts, the results for `CCCCCCCCCCCCC(=O)N[C@@H](CCC(=O)NCCOCCOCC(=O)NCCOCCOCC(=O)N[C@@H](CCC(N)=O)C(=O)N[C@@H](CCCNC(=N)N)C(=O)N1CCC[C@H]1C(=O)N(C)[C@@H](CCCNC(=N)N)C(=O)N[C@@H](CC(C)C)C(=O)N[C@@H](CO)C(=O)N[C@@H](Cc1c[nH]cn1)C(=O)N[C@@H](CCCCN)C(=O)NCC(=O)N1CCC[C@H]1C(=O)N[C@@H](CCCC)C(=O)N[C@@H](Cc1ccc(Cl)cc1)C(=O)O)C(=O)O` [compound 402] ({Tridecanoyl-γGlu-AEEA-AEEA}-QRP[NMeR]LSHKGP[Nle][Phe(4-Cl)]-OH) are 87% and less than 1%.
On the same counts, the results for `CCCCCCCCCCCCC(=O)N[C@@H](CCC(=O)NCCOCCOCC(=O)NCCOCCOCC(=O)N[C@@H](CCC(N)=O)C(=O)N[C@@H](CCCNC(=N)N)C(=O)N1CCC[C@H]1C(=O)N(C)[C@@H](CCCNC(=N)N)C(=O)N[C@H](CC(=O)N[C@@H](CO)C(=O)N[C@@H](Cc1c[nH]cn1)C(=O)N[C@@H](CCCCN)C(=O)NCC(=O)N1CCC[C@H]1C(=O)N[C@@H](CCCC)C(=O)N1CCC[C@H]1C(=O)N[C@@H](Cc1ccc(Cl)cc1)C(=O)O)CC(C)C)C(=O)O` [compound 422] are 37% and less than 1%.
On the same counts, the results for `CCCCCCCCCCCCC(=O)N[C@@H](CCC(=O)NCCOCCOCC(=O)NCCOCCOCC(=O)N[C@@H](CCC(N)=O)C(=O)N[C@@H](CCCNC(=N)N)C(=O)N1CCC[C@H]1C(=O)N(C)[C@@H](CCCNC(=N)N)C(=O)N[C@@H](CC(C)C)C(=O)N[C@@H](CO)C(=O)N[C@@H](Cc1c[nH]cn1)C(=O)N[C@@H](CCCCN)C(=O)NCC(=O)N1CCC[C@H]1C(=O)N[C@@H](CCCC)C(=O)NCCC(=O)N[C@@H](Cc1ccc(Cl)cc1)C(=O)O)C(=O)O` [compound 425] ({Tridecanoyl-γGlu-AEEA-AEEA}-QRP[NMeR]LSHKGP[Nle][βAla][Phe(4-Cl)]-OH) are greater than 90% and less than 1%.
As to `CCCCCCCCCCCCC(=O)N[C@@H](CCC(=O)NCCOCCOCC(=O)NCCOCCOCC(=O)N[C@@H](CCC(N)=O)C(=O)N[C@@H](CCCNC(=N)N)C(=O)N1CCC[C@H]1C(=O)N(C)[C@@H](CCCNC(=N)N)C(=O)N[C@@H](CC(C)C)C(=O)N[C@@H](CO)C(=O)N[C@@H](Cc1c[nH]cn1)C(=O)N[C@@H](CCCCN)C(=O)NCC(=O)N1CCC[C@H]1C(=O)N[C@@H](CCCC)C(=O)N1CCC[C@H]1CC(=O)N[C@@H](Cc1ccc(Cl)cc1)C(=O)O)C(=O)O` [compound 426], the fraction remaining at 4 h, 5 μM in series [1] was 33%; in series [2] it was less than 1%.
On the same counts, the results for `CCCCCCCCCCCCC(=O)N[C@@H](CCC(=O)NCCOCCOCC(=O)NCCOCCOCC(=O)N[C@@H](CCC(N)=O)C(=O)N[C@@H](CCCNC(=N)N)C(=O)N1CCC[C@H]1C(=O)N(C)[C@@H](CCCNC(=N)N)C(=O)N[C@@](C)(CC(C)C)C(=O)N[C@@H](CO)C(=O)N[C@@H](Cc1c[nH]cn1)C(=O)N[C@@H](CCCCN)C(=O)NCC(=O)N1CCC[C@H]1C(=O)N[C@@H](CCCC)C(=O)N1CCC[C@H]1C(=O)N[C@@H](Cc1ccc(Cl)cc1)C(=O)O)C(=O)O` [compound 457] are 62% and less than 1%.
For `CCCCCCCCCCCCC(=O)N[C@@H](CCC(=O)NCCOCCOCC(=O)NCCOCCOCC(=O)N[C@@H](CCC(N)=O)C(=O)N[C@@H](CCCNC(=N)N)C(=O)N1CCC[C@H]1C(=O)N(C)[C@@H](CCCNC(=N)N)C(=O)N[C@@H](CC(C)C)C(=O)NCCC(=O)N[C@@H](Cc1c[nH]cn1)C(=O)N[C@@H](CCCCN)C(=O)NCC(=O)N1CCC[C@H]1C(=O)N[C@@H](CCCC)C(=O)N1CCC[C@H]1C(=O)N[C@@H](Cc1ccc(Cl)cc1)C(=O)O)C(=O)O` [compound 464] ({Tridecanoyl-γGlu-AEEA-AEEA}-QRP[NMeR]L[βAla]HKGP[Nle]P[Phe(4-Cl)]-OH), in that order: 21% and less than 1%.
On the same counts, the results for `CCCCCCCCCCCCC(=O)N[C@@H](CCC(=O)NCCOCCOCC(=O)NCCOCCOCC(=O)N[C@@H](CCC(N)=O)C(=O)N[C@@H](CCCNC(=N)N)C(=O)N1CCC[C@H]1C(=O)N(C)[C@@H](CCCNC(=N)N)C(=O)N[C@@H](CC(C)C)C(=O)N[C@@H](CO)C(=O)N[C@H](CN[C@@H](CCCCN)C(=O)NCC(=O)N1CCC[C@H]1C(=O)N[C@@H](CCCC)C(=O)N1CCC[C@H]1C(=O)N[C@@H](Cc1ccc(Cl)cc1)C(=O)O)Cc1c[nH]cn1)C(=O)O` [compound 469] are 36% and less than 1%.
Turning to `CCCCCCCCCCCCC(=O)N[C@@H](CCC(=O)NCCOCCOCC(=O)NCCOCCOCC(=O)N[C@@H](CCC(N)=O)C(=O)N[C@@H](CCCCNC(=N)N)C(=O)N1CCC[C@H]1C(=O)N(C)[C@@H](CCCNC(=N)N)C(=O)N[C@@](C)(CC(C)C)C(=O)N[C@@H](CO)C(=O)N[C@@H](Cc1c[nH]cn1)C(=O)N[C@@H](CCCCN)C(=O)NCC(=O)N1CCC[C@H]1C(=O)N[C@@H](CCCC)C(=O)N1CCC[C@H]1C(=O)N[C@@H](Cc1ccc2ccccc2c1)C(=O)O)C(=O)O` [compound 473] ({Tridecanoyl-γGlu-AEEA-AEEA}-Q[hArg]P[NMeR][αMeL]SHKGP[Nle]P[2Nal]-OH), the share remaining at 4 h, 5 μM was 82% in series [1] and less than 1% in series [2].
